Data taken from PMC9950143 (Scientific Reports, 2023).

Assays:
Rhinovirus A2 = assay: CPE assay, H1 HeLa cells; assay type: cell-based
Rhinovirus 14 = assay: CPE assay, H1 HeLa cells; assay type: cell-based; details: Rhinovirus 14 [H1 HeLa]
Dengue 3 virus (H87) = assay: microbe, parasite or virus in culture; assay type: cell-based
Dengue 4 virus (MY01) = assay: microbe, parasite or virus in culture; assay type: cell-based; details: Dengue 4 virus (MY01) [Huh-7]
[1] = tested on: Dengue 4 virus (Dakar_HD_34460); assay: microbe, parasite or virus in culture; assay type: cell-based
Zika virus (Dakar) = assay: NanoLuc reporter virus infection assay, Huh-7; assay type: cell-based; details: Zika virus (Dakar) [Huh-7]
Yellow fever virus (17D) = assay: microbe, parasite or virus in culture; assay type: cell-based
Ebola virus (Makona) = assay: microbe, parasite or virus in culture; assay type: cell-based
Ebola virus (Mayinga) = assay: microbe, parasite or virus in culture; assay type: cell-based
Ebola virus (Kikwit) = assay: microbe, parasite or virus in culture; assay type: cell-based
Sudan virus (Gulu) = assay: microbe, parasite or virus in culture; assay type: cell-based
Sudan virus (Boneface) = assay: microbe, parasite or virus in culture; assay type: cell-based
Sudan virus (Yambio) = assay: microbe, parasite or virus in culture; assay type: cell-based
Marburg (Kabale) = assay: microbe, parasite or virus in culture; assay type: cell-based, Marburg virus
Marburg (Nganda) = assay: microbe, parasite or virus in culture; assay type: cell-based, Marburg virus
Marburg (Drandema) = assay: microbe, parasite or virus in culture; assay type: cell-based, Marburg virus
Marburg (Angola) = assay: microbe, parasite or virus in culture; assay type: cell-based, Marburg virus
HCV GT2a replicon = assay: HCV subgenomic replicon Renilla luciferase assay, Huh-7-lunet; assay type: cell-based, hepatitis C virus; details: Hepatitis C (2a) [Huh-7-lunet]
[2] = tested on: Influenza A (A/California/07/2009); assay: CPE assay, MDCK cells; assay type: cell-based; details: Influenza A virus; Influenza A (A/California/07/2009) [MDCK]; read-out: Antiviral activity EC50
[3] = tested on: hepatitis B virus (HBV; AD38 strain); assay: Anti-HBV assay (HBsAg), HepG2-NTCP cells; assay type: cell-based; details: HepG2 or PHH cells
[4] = tested on: hepatitis B virus (HBV; AD38 strain); assay: microbe, parasite or virus in culture; assay type: cell-based; details: Hepatocyte, read-out: Antiviral activity EC50
HDV genotype 1 virus = assay: HDV infection assay (HDAg immunofluorescence), Huh7-NTCP cells; assay type: cell-based, hepatitis delta virus; details: Hepatitis D (Huh7-NTCP)
DENV = assay: microbe, parasite or virus in culture; assay type: cell-based; details: Dengue virus, Huh-7, read-out: EC50 range against DENV
[5] = tested on: all MARV and Ravn virus (RAVV) isolates tested; assay: microbe, parasite or virus in culture; assay type: cell-based, Marburg virus; details: Filoviridae, HeLa, read-out: EC50 values against all MARV and RAVV isolates tested
HCV genotype 1b and 2a = assay: HCV subgenomic replicon assay (summary of both genotypes); assay type: cell-based; details: Hepatitis C virus; genotype 1b and 2a subgenomic replicon; read-out: EC50 against replicons of both HCV genotypes
MARV Ci67 [6] = assay type: cell-based, Marburg virus
SUDV Boniface = assay: microbe, parasite or virus in culture; assay type: cell-based, Sudan virus; details: Sudan ebolavirus, HeLa; n = 9; read-out: RDV activity against SUDV EC50
MARV Ci67 [7] = assay: organism not typed; assay type: cell-based, Marburg virus; details: HeLa; n = 9; read-out: RDV activity against MARV EC50
OC43 = details: different cells and/or assay protocols, read-out: Previously reported activity EC50; cited from earlier work
Enterovirus 68D = details: listed as Enterovirus 68D; different cells and/or assay protocols; read-out: Previously reported activity EC50; cited from earlier work
Ebola virus = details: read-out: Previously reported activity EC50; cited from earlier work
Marburg virus (Ci67) = details: read-out: Previously reported activity EC50; cited from earlier work
HCV 1b replicon = details: Hepatitis C (1b) replicon; read-out: Previously reported activity EC50; cited from earlier work
[8] = Cytotoxicity in HBV assay; details: human, HepG2-NTCP cells (clone HY12), HBV-infected
[9] = Compound cytotoxicity by MTS dye reduction; details: dog, MDCK cells
MDCK cells = assay: Compound cytotoxicity by MTS dye reduction; details: MDCK; listed as Influenza B (B/Brisbane/60/2008)
[10] = Cell toxicity, CellTiter-Glo, in HBV assay; details: human, PHH cells (HBV assay)
[11] = Cytotoxicity, CellTiter-Glo, 72 h (OC43 protocol); details: human, Huh-7 cells
[12] = Dengue virus, Huh-7, read-out: Antiviral activity EC50
[13] = n = 1, read-out: Antiviral activity EC50
[14] = Zaire ebolavirus, HeLa, read-out: Antiviral activity EC50
[15] = Sudan ebolavirus, HeLa, n = 1, read-out: Antiviral activity EC50
[16] = Filoviridae, HeLa, read-out: Antiviral activity EC50

Question: With `CCC(CC)COC(=O)[C@H](C)N[P@](=O)(OC[C@H]1O[C@@](C#N)(c2ccc3c(N)ncnn23)[C@H](O)[C@@H]1O)Oc1ccccc1` [RDV, Remdesivir] as the molecule, how does the “Selectivity index (SI) = CC50/EC50” value (Rhinovirus A2) read?
Answer: > 22

Question: And the EC50 (Rhinovirus A2; Rhinovirus A, n = 1, read-out: Antiviral activity EC50)?
Answer: 450 nM

Question: What about the EC50 (Rhinovirus 14; Enterovirus, read-out: Antiviral activity EC50) of the same molecule?
Answer: 385 ± 318 nM

Question: What about the “Selectivity index (SI) = CC50/EC50” value (Rhinovirus 14) of the same molecule?
Answer: > 26

Question: And the “Selectivity index (SI) = CC50/EC50” value (Dengue 3 virus (H87))?
Answer: 196

Question: What about the EC50 (Dengue 3 virus (H87); [12]) of the same molecule?
Answer: 170 ± 70 nM

Question: What about the “Selectivity index (SI) = CC50/EC50” value (Dengue 4 virus (MY01)) of the same molecule?
Answer: 186

Question: What about the EC50 (Dengue 4 virus (MY01); [13]) of the same molecule?
Answer: 180 nM

Question: What about the “Selectivity index (SI) = CC50/EC50” value [1] of the same molecule?
Answer: 176

Question: And the EC50 [1, 12]?
Answer: 190 ± 50 nM

Question: What about the “Selectivity index (SI) = CC50/EC50” value (Zika virus (Dakar)) of the same molecule?
Answer: 90

Question: What about the EC50 (Zika virus (Dakar); [13]) of the same molecule?
Answer: 370 nM

Question: What about the “Selectivity index (SI) = CC50/EC50” value (Yellow fever virus (17D)) of the same molecule?
Answer: 186

Question: And the EC50 (Yellow fever virus (17D); Yellow fever virus, Huh-7, read-out: Antiviral activity EC50)?
Answer: 180 ± 30 nM

Question: What about the “Selectivity index (SI) = CC50/EC50” value (Ebola virus (Makona)) of the same molecule?
Answer: > 32

Question: What about the EC50 (Ebola virus (Makona); [14]) of the same molecule?
Answer: 78 ± 4 nM

Question: And the “Selectivity index (SI) = CC50/EC50” value (Ebola virus (Mayinga))?
Answer: > 18

Question: And the EC50 (Ebola virus (Mayinga); [14])?
Answer: 136 ± 17 nM

Question: And the “Selectivity index (SI) = CC50/EC50” value (Ebola virus (Kikwit))?
Answer: > 36

Question: And the EC50 (Ebola virus (Kikwit); [14])?
Answer: 70 ± 8 nM

Question: And the “Selectivity index (SI) = CC50/EC50” value (Sudan virus (Gulu))?
Answer: > 192

Question: And the EC50 (Sudan virus (Gulu); [15])?
Answer: 60 nM

Question: What about the “Selectivity index (SI) = CC50/EC50” value (Sudan virus (Boneface)) of the same molecule?
Answer: > 21

Question: What about the EC50 (Sudan virus (Boneface); [15]) of the same molecule?
Answer: 120 nM

Question: And the “Selectivity index (SI) = CC50/EC50” value (Sudan virus (Yambio))?
Answer: > 19

Question: And the EC50 (Sudan virus (Yambio); [15])?
Answer: 130 nM

Question: What about the “Selectivity index (SI) = CC50/EC50” value (Marburg (Kabale)) of the same molecule?
Answer: > 63

Question: And the EC50 (Marburg (Kabale); [16])?
Answer: 40 ± 2 nM

Question: What about the “Selectivity index (SI) = CC50/EC50” value (Marburg (Nganda)) of the same molecule?
Answer: > 104

Question: And the EC50 (Marburg (Nganda); [16])?
Answer: 24 ± 4 nM

Question: And the “Selectivity index (SI) = CC50/EC50” value (Marburg (Drandema))?
Answer: > 74

Question: And the EC50 (Marburg (Drandema); [16])?
Answer: 34 ± 4 nM

Question: What about the “Selectivity index (SI) = CC50/EC50” value (Marburg (Angola)) of the same molecule?
Answer: > 56

Question: What about the EC50 (Marburg (Angola); [16]) of the same molecule?
Answer: 45 ± 30 nM

Question: And the “Selectivity index (SI) = CC50/EC50” value (HCV GT2a replicon)?
Answer: 236

Question: What about the EC50 (HCV GT2a replicon; Hepatitis C virus, GT2A, read-out: Antiviral activity EC50) of the same molecule?
Answer: 72 ± 13 nM

Question: And the EC50 [2]?
Answer: > 50000 nM

Question: And the “selectivity index of RDV against HBV” value [3]?
Answer: ~1

Question: And the EC50 [4]?
Answer: > 1000 nM

Question: And the “Selectivity index (SI)” value (HDV genotype 1 virus)?
Answer: Low (When minimal RDV antiviral activity is observed for a particular virus, low SI is indicated)

Question: What about the EC50 (HDV genotype 1 virus; Hepatitis delta virus, read-out: Antiviral activity EC50) of the same molecule?
Answer: > 5000 nM

Question: And the EC50 (DENV)?
Answer: 120 to 230 nM

Question: What about the EC50 [5] of the same molecule?
Answer: 24 to 68 nM

Question: What about the EC50 (HCV genotype 1b and 2a) of the same molecule?
Answer: 72 to 89 nM

Question: What about the “maximum fold reduction of RDV EC50 in the presence of favipiravir” value (MARV Ci67 [6]) of the same molecule?
Answer: ≥ tenfold

Question: What about the EC50 (SUDV Boniface) of the same molecule?
Answer: 308 nM

Question: And the EC50 (MARV Ci67 [7])?
Answer: 109 nM

Question: What about the EC50 (OC43) of the same molecule?
Answer: 96 to 150 nM

Question: And the EC50 (Enterovirus 68D)?
Answer: 100 to 1000 nM

Question: And the EC50 (Ebola virus)?
Answer: 3 to 140 nM

Question: What about the EC50 (Marburg virus (Ci67)) of the same molecule?
Answer: 10 to 20 nM

Question: What about the EC50 (HCV 1b replicon) of the same molecule?
Answer: 57 nM

Question: And the CC50 at 5 days [8]?
Answer: 7400 nM

Question: And the CC50 [9]?
Answer: > 100000 nM

Question: What about the CC50 (MDCK cells) of the same molecule?
Answer: > 100000 nM

Question: And the CC50 [10]?
Answer: > 1000 nM

Question: What about the CC50 at 72 h [11] of the same molecule?
Answer: 18900 ± 1800 nM
